Nine compounds from US20190327974A1, “SYNERGISTS FOR IMPROVED PESTICIDES” (priority 2017, published 2019) can be followed below.

Where only a bound is given, the exact number is not on record here.

One data set has as its target T1, Furin (Homo sapiens, UniProt P09958).
T1 construct: purchased R&D Systems
The data set can be described thus: Protease selectivity panel. In kind it is biochemical. The following applies: 100 μM compound, n = 2. On the procedure: (§1) Test compounds were dissolved in 100% DMSO to make 10 mM stock. Final compound concentration in assay is […]. Compounds were tested in duplicate wells at single concentration and the final concentration of DMSO in all assays was kept at 1%. Five reference compounds, AEBSF, Carfilzomib, Granzyme B Inhibitor II, Dec-RVKR-CMK, and Teneligliptin hydrobromide, were tested in an identical manner with 8 concentration points at 5× dilutions.

Another data set has as its target T2, Kallikrein11 (Homo sapiens, UniProt Q9UBX7).
T2 construct: purchased R&D Systems
T2 sequence (Q9UBX7 54-282): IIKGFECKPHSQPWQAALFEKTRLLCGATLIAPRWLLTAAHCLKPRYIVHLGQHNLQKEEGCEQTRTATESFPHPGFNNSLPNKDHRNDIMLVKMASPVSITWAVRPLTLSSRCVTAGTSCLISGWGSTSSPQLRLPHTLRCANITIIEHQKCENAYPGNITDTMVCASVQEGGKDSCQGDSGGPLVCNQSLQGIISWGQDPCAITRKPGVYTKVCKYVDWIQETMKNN
The data set can be described thus: Protease selectivity panel. The class given is biochemical. The note with it: 100 μM compound, n = 2. The method, then:
as §1

In another data set the target is T3, HTRA2 (Homo sapiens, UniProt O43464).
T3 construct: purchased R&D Systems
T3 sequence (O43464 134-458): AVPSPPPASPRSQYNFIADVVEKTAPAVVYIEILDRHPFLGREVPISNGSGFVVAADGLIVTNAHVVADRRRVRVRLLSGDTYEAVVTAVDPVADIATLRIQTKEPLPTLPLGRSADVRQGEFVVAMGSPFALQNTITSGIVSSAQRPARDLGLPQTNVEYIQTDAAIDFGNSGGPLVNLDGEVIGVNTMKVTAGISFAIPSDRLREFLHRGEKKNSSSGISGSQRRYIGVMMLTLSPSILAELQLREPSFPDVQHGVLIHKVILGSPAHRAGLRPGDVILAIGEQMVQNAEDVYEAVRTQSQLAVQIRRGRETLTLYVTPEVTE
The data set can be described thus: Protease selectivity panel. In kind it is biochemical. The following applies: 100 μM compound, n = 2. The method, then:
as §1

The target in another data set is T4, GranzymeB (Homo sapiens, UniProt P10144).
T4 construct: purchased ENZO
T4 sequence (P10144 21-247): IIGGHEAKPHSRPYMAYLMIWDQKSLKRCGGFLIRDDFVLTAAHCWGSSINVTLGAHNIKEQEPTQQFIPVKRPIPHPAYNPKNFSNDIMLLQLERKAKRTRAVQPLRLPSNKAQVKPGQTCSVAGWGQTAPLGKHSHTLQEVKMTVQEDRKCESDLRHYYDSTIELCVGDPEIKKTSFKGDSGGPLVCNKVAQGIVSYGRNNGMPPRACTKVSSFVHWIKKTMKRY
Kind of data set: Protease selectivity panel. The class given is biochemical. The note with it: 100 μM compound, n = 2. On the procedure: as §1

A further data set concerns the target T5, PSMB10 (Homo sapiens, UniProt P40306).
T5 construct: purchased BOSTON-BIOCHEM
Kind of data set: Protease selectivity panel. In kind it is biochemical. The following applies: 100 μM compound, n = 2. The method, then: as §1

The target of a further data set is T6, GranzymeA (Homo sapiens, UniProt P12544).
T6 construct: purchased ENZO
T6 sequence (P12544 29-262): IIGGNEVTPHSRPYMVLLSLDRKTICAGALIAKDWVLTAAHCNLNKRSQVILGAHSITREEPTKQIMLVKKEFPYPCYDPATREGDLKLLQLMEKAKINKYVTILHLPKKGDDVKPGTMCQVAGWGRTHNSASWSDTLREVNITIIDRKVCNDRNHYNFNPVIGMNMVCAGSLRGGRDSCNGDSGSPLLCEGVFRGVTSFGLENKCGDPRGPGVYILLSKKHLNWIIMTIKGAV
Kind of data set: Protease selectivity panel. The following applies: 100 μM compound, n = 2. The class given is biochemical. On the procedure: as §1

A further data set deals with T7, Spinesin (Homo sapiens, UniProt Q9H3S3).
T7 construct: purchased R&D Systems
T7 sequence (Q9H3S3 218-457 limits assumed): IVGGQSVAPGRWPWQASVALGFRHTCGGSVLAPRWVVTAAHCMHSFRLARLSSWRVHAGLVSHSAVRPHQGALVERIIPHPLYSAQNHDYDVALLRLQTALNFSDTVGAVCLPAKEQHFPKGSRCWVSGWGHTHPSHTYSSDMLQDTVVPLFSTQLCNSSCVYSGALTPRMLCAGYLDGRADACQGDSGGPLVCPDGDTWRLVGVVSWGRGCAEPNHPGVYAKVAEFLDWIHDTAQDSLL
The data set can be described thus: Protease selectivity panel. The following applies: 100 μM compound, n = 2. The class given is biochemical. On the procedure: as §1

A further data set concerns the target T8, DPP9 (Homo sapiens, UniProt Q86TI2).
T8 construct: purchased ENZO
The data set can be described thus: Protease selectivity panel. The class given is biochemical. The following applies: 100 μM compound, n = 2. The method, then: as §1

The target of a further data set is T9, PSMB7 (Homo sapiens, UniProt Q99436).
T9 construct: purchased BOSTON-BIOCHEM
The data set can be described thus: Protease selectivity panel. The class given is biochemical. The note with it: 100 μM compound, n = 2. The method, then:
as §1

A further data set deals with T10, Thrombin (Homo sapiens, UniProt P00734).
T10 construct: Thrombin; purchased R&D Systems
The data set can be described thus: Protease selectivity panel. In kind it is biochemical. The note with it: 100 μM compound, n = 2. The method, then:
as §1

The subject of data set [1] is Myzus persicae (Green peach aphid). Kind of data set: CPE combined with boronic acid derivatives on small broad bean leaves. In kind it is in vivo. The note with it: for toxicity of the boronic acid derivative alone (in words): ANOVAs followed by Newman-Keuls tests, threshold 5%; for insecticidal efficacy of CPE on addition of the compound (in words): CPE at 2.8 g a.i./ha and 5.6 g a.i./ha; for Percentage of efficacy: boronic acid, where present, 0.2 mg/ml. On the procedure:
[…] The treatment was performed with an agricultural nozzle (300 L per hectare) […]. A non-treated control condition were also evaluated in parallel. Statistical analysis of the data was then performed. When the leaves were totally dry, 3 leaves were sampled and infested with 3 wingless adults of M. persicae per leaf fragment.
• T+1 (DAT 1)—One day later the number of adults remaining on the leaves was counted. • T+3 (DAT 3)—3 days after treatment the aphid population was estimated; • T+7 (DAT 7)—7 days after treatment the development of aphid population was estimated.
3 bean leaves fragments per microbox*4 microbox per condition (1 condition is 1 formulation at 1 dose)*9 adult aphids per microbox*4 insecticides (3 chlorpyrifos derivates+clorpyrifos alone)*4 rates+2 controls (1 reference insecticide formulation at one dose and non-treated)*3 assessments timings (DAT+1, DAT+3 and DAT+7).

Another data set concerns the target T11, Trypsin (Bos taurus, UniProt P00760).
T11 construct: gene PRSS1
T11 sequence (P00760 24-246): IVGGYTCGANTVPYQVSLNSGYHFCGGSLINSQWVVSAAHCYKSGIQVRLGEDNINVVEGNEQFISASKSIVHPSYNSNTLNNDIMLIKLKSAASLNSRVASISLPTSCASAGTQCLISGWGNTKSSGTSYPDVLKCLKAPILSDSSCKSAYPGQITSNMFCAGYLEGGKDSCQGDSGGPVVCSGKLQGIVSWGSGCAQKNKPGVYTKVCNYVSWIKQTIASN
Kind of data set: Trypsin selectivity. In kind it is biochemical. The method, then: To characterize the selectivity of boronic acids 1 to 5, they were assayed against AChE, the target of OP and carbamate insecticides (Table 1) as well as trypsin and bacterial AmpC β-lactamase. […] The toxicity of the hits against two human cell lines was further assessed.
To characterize the selectivity of boronic acids 1 to 5, they were assayed against the target of OP insecticides, AChE, as well as trypsin and bacterial AmpC β-lactamase (Table 1). AChE and αE7 are homologous, sharing the α/β-hydrolase fold and the same catalytic machinery, however the topology of their binding pockets is dissimilar (Jackson, C. J. et al. Structure and function of an insect α-carboxylesterase (αEsterase7) associated with insecticide resistance. Proc. Natl. Acad. Sci. U.S.A. 110, 10177-82 (2013) and Correy, G. J. et al. Mapping the Accessible Conformational Landscape of an Insect Carboxylesterase Using Conformational Ensemble Analysis and Kinetic Crystallography. Structure 24, 1-11 (2016).). Both trypsin and AmpC β-lactamase contain an activated serine nucleophile and oxyanion hole, however trypsin contains a serine-histidine-aspartic acid (Hedstrom, L. Serine protease mechanism and specificity. Chem. Rev. 102, 4501-4523 (2002).) while AmpC β-lactamase contains a serine-tyrosine-lysine catalytic triad (Dubus, A., et al. The roles of residues Tyr150, Glu272, and His314 in class C β-lactamases. Proteins Struct. Funct. Genet. 25, 473-485 (1996).).

T8 sequence (Q86TI2 whole entry): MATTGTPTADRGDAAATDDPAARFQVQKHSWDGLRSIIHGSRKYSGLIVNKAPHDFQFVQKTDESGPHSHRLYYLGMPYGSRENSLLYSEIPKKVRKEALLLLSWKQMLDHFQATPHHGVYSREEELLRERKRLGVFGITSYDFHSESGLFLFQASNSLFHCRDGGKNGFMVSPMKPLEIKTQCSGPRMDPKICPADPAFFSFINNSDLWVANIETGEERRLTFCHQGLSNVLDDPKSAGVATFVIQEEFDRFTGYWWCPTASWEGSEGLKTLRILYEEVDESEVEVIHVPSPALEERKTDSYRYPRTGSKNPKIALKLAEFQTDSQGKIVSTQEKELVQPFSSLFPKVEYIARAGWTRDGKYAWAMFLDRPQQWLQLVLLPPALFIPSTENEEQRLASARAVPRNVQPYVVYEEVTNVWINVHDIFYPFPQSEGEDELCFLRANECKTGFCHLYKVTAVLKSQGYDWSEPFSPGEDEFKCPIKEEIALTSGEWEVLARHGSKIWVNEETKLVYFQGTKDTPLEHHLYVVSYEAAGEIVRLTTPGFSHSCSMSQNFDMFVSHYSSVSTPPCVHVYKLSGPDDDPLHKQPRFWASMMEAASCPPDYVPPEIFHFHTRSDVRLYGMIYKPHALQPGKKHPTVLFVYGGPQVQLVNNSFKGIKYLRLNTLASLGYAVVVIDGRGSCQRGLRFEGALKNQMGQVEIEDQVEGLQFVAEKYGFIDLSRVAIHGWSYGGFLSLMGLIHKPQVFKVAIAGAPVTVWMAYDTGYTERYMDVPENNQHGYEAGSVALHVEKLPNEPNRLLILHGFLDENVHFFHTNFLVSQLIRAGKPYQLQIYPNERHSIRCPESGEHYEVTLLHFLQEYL
T1 sequence (P09958 108-794): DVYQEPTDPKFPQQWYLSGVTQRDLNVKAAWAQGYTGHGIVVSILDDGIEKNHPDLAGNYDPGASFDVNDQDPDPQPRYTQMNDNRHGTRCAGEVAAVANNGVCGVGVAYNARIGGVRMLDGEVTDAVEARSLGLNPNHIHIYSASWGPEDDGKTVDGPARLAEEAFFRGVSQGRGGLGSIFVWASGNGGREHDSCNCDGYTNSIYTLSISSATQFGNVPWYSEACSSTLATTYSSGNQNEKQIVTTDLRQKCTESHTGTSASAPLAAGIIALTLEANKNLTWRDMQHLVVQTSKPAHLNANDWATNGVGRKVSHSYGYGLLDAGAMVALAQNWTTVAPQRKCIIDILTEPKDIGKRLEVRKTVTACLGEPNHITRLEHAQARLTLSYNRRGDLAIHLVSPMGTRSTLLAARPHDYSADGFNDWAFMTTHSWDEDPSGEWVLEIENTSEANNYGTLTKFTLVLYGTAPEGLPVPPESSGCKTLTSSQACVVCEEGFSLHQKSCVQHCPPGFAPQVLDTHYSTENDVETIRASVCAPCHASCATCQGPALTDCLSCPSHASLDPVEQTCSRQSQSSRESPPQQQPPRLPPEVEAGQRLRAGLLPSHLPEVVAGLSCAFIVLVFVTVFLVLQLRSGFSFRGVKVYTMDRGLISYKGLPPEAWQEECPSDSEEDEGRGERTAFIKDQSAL

In general, inhibition refers to the relative decrease from the control value, in per cent. In the case of `OB(O)c1cc(Br)cc(Oc2ccccc2)c1` [Compound 3.10, 3-Bromo-5-phenoxyfenylboronic acid], the inhibition at 100 µM was -5% against Furin; -43% against Kallikrein11; 2% against HTRA2; 11% against GranzymeB; 45% against PSMB10; 12% against GranzymeA. The inhibition at 100 µM on Spinesin was determined as 34%; against DPP9, 71%; at PSMB7 it was 48%; against Thrombin it was 58%. For the same compound, in data set [1], the “toxicity of the boronic acid derivative alone (in words)” value (shortened to “toxicity”) was “No significant toxicity”. Further, the “insecticidal efficacy of CPE on addition of the compound (in words)” value (from here on “insecticidal efficacy of CPE”) in data set [1] is listed as “increased”.
As to `OB(O)c1cc(Br)cc(OCc2ccccc2)c1` [Compound 3.9], the inhibition at 100 µM against Furin was -2%; on Kallikrein11 it was -148%; against HTRA2 it was 28%; at GranzymeB, 17%; at PSMB10 it was 78%; against GranzymeA it was 23%. In addition, the inhibition at 100 µM turned out to be 13% against Spinesin, 75% against DPP9, 70% against PSMB7 and 54% on Thrombin.
A word on the Ki: it is a measure of affinity in units of concentration, obtained from inhibition or displacement. As to `Cc1ccc(B(O)O)cc1OCc1ccccc1` [Compound 2], on Trypsin, the Ki is over 100 µM.
Turning to `OB(O)c1cc(Br)cc(N2CCCC2)c1` [Compound 3], on Trypsin, the Ki is over 100 µM. The inhibition at 100 µM against Furin is 1%; at Kallikrein11, -71%; against HTRA2, 23%; against GranzymeB, 3%; against PSMB10, 43%; against GranzymeA, 12%. The inhibition at 100 µM came out at 26% on Spinesin, 45% against DPP9, 39% at PSMB7 and 32% against Thrombin.
`OB(O)c1ccc(OCc2ccccc2F)c(Cl)c1` [Compound 5, 3-Chloro-4(2′-fluorobenzyloxy) phenylboronic acid] had a Ki at Trypsin of over 100 µM. In addition, in data set [1], the “toxicity” value is listed as “No significant toxicity” and the “insecticidal efficacy of CPE” value is recorded as “increased”.
On to `CC(C)Oc1cc(Br)cc(B(O)O)c1` [Compound 3.7, 3-Bromo-5-isopropoxyphenylboronic acid], for which, in data set [1], the “toxicity” value is “No significant toxicity” and the “insecticidal efficacy of CPE” value is listed as “increased”.
`OB(O)c1ccc2ccccc2c1` [Compound 4] yielded a Ki on Trypsin of over 10 µM.
Compound `Cc1ccc(B(O)O)cc1Br` [Compound 1] gave a Ki at Trypsin of over 100 µM.
Take `CCOP(=S)(OCC)Oc1nc(Cl)c(Cl)cc1Cl` [CPE, Chlorpyrifos-ethyl]: the Percentage of efficacy is listed as 38% in [1] (1 DAT, CPE 0.7); 41% in [1] (1 DAT, CPE 1.4); 32% in [1] (1 DAT, CPE 2.8 g a.i./ha); 36% in data set [1] (1 DAT, CPE 5.6 g a.i./ha); 20% in [1] (3 DAT, CPE 0.7); 27% in data set [1] (3 DAT, CPE 1.4). Also, the Percentage of efficacy is on record as 26% in data set [1] (3 DAT, CPE 2.8 g a.i./ha); 48% in data set [1] (3 DAT, CPE 5.6 g a.i./ha); 25% in data set [1] (7 DAT, CPE 0.7); 25% in data set [1] (7 DAT, CPE 1.4); 23% in [1] (7 DAT, CPE 2.8 g a.i./ha); 67% in [1] (7 DAT, CPE 5.6 g a.i./ha). Moreover, the Calibration results in [1] (1 DAT, CPE 1.4) amounted to 33%; in data set [1] (1 DAT, CPE 2.8), 31%; in data set [1] (1 DAT, CPE 5.6) it was 67%; in data set [1] (3 DAT, CPE 1.4), 51%; in [1] (3 DAT, CPE 2.8), 79%; in data set [1] (3 DAT, CPE 5.6), 98%. In addition, the Calibration results in [1] (7 DAT, CPE 1.4) was found to be 51%; in data set [1] (7 DAT, CPE 2.8) it was 99%; in data set [1] (7 DAT, CPE 5.6), 100%.
